Laboratory results reported in patent US20100333217A1, “SCREENING METHOD FOR THE COMPOSITION FOR PREVENTION OR TREATMENT OF OSTEOPOROSIS AND METABOLIC BONE DISEASE USING TALLYHO/JNGJ MOUSE” (KOREA RESERACH INSTITUTE OF CHEMICAL TECHNOLOGY, priority 2007, published 2010).

Legend:
male TH mice [1] = assay: Micro-CT bone mineral density, bone mineral content and skull thickness in drug-treated male TH mice; format: in vivo, mouse
Protocol: Control mice (C57BL/6) and TH mice were freely fed, and their bone mineral densities were measured every week from 4 week age to 20 week age after delectation. The mice were anesthetized with Avertin (2,2,2-tribromoethanol) to keep them alive while measuring their bone mineral densities. […] Thereafter, the resulting images were reformed using Microview (GE Healthcare, USA) to obtain the final bone mineral density (BMD) and the final bone mineral content (BMC) (see FIG. 2).
Control mice (C57BL/6) and TH mice were fed freely. […] Thereafter, the bone thicknesses and the bone mineral densities of the extracted skulls were measured as described in Example 2, using a tomographic apparatus (micro-CT) for animals.
8-week-old male TH mice were orally administered with parathyroid hormone (hPTH(1-34), Sigma, USA), which is started to be used as an osteoporosis medicine increasing the bone mineral content, with a concentration of 50 μg/kg, once a day for 4 weeks.

male TH mice [2] = details: oral 5 mg/kg once a day for 4 weeks, femur of 8-week-old mouse, micro-CT (FIG. 19)
Protocol: Thereafter, the bone mineral density and the bone mineral content of the femur and the thickness and the bone mineral density of the skull were measured as described in Examples 2 and 3. […] The TH mice and B6 mice were sacrificed with carbon dioxide. The femurs thereof were extracted and scanned 400 times with a thickness of […] using eXplore Locus micro-CT (GE Healthcare, USA) which is devised as a tomographic apparatus for small animals. The scanned images were accurately reformed using Microview (GE Healthcare, USA) to obtain final histomorphological images of the femurs.

IL-6 = details: male TH mice, oral 5 mg/kg once a day for 4 weeks; ELISA (FIG. 20)
Protocol: (§1) Thereafter, the bone mineral density and the bone mineral content of the femur and the thickness and the bone mineral density of the skull were measured as described in Examples 2 and 3.
Meanwhile, after separating the blood serum, IL-6 level was measured using ELISA Kit (ALPCO diagnostics, USA).

OPG = details: cells separated from bone marrow of treated TH mice and cultured, RT-PCR; vs vehicle (FIG. 21)
Protocol: (§2) After separating mRNA from the cell of FIG. 4, the expression levels of the genes related to the differentiation of osteoblast and osteoclast and cytokines were analyzed. The total RNA was obtained from the Extraction Kit (Intron, Seongnam, Korea) according to the manufacturer's protocol. The separated RNA was weighed by measuring the absorbance. The reverse transcription PCR (RT-PCR) was performed using primers listed in Table 1 under the following conditions to examine the expression level of each of the genes.
(§3) Reverse Transcription System (Promega, USA) was added with total RNA 1 μg, 10 mM dNTP 2 μl, 100 pmole Oligo dT 1 μl, 10×buffer 2 μl, 25 mM MgCl2 4 μl, RNase inhibitor 0.2 μl, AMV RTase 0.2 μl, and DEPC-treated water, and cultured at 42° C. for 60 minutes and at 72° C. for 10 minutes to prepare cDNA. Then, the reverse transcripted cDNA sample was amplified using primer pairs specific to respective target genes. The PCR was repeated 25-30 times after denaturation at 95° C. for 5 minutes. In specific, the PCR was performed under the condition of denaturation at 95° C. for 30 seconds, primer annealing at 55° C. (NPY1receptor), 56° C.
as §1

RANKL = details: cells separated from bone marrow of treated TH mice and cultured, RT-PCR; vs vehicle (FIG. 21)
Protocol: as §2, §3, §1

Row | Compound | bone mineral densities (male TH mice [1]; 8-week-old male TH mice, 50 μg/kg once a day for 4 weeks, orally administered (so in the source), femur, vs 12-week-old TH mice treated with vehicle only (FIG. 22)) | bone mineral contents (male TH mice [1]; 8-week-old male TH mice, 50 μg/kg once a day for 4 weeks, orally administered (so in the source), femur, vs 12-week-old TH mice treated with vehicle only (FIG. 23)) | bone mineral contents in the femurs (male TH mice [1]; 4-week-old male TH mice, oral 5 mg/kg once a day for 4 weeks, vs 8-week-old TH mice treated with vehicle only (FIG. 16)) | thicknesses of the skulls (male TH mice [1]; 4-week-old male TH mice, oral 5 mg/kg once a day for 4 weeks, vs TH mice vehicle (FIG. 17)) | histomorphological images of the femurs (recovering the bone loss) (male TH mice [2]) | IL-6 level in blood serum (IL-6) | OPG gene expression (OPG) | RANKL gene expression (RANKL)
1 | parathyroid hormone (hPTH(1-34) (SVSEIQLMHNLGKHLNSMERVEWLRKKLQDVHNF; Parathyroid hormone; UniProt P01270 32-65, looked up, fragment) [parathyroid hormone hPTH(1-34), Sigma; osteoporosis medicine increasing the bone mineral content] | significantly recovered | significantly recovered | – | – | – | – | – | –
2 | NCCCC(O)(P(=O)(O)O)P(=O)(O)O [alendronate] | – | – | significantly recovered | significantly recovered | filled with trabeculars | low IL-6 level | increased | decreased
